Molecular target: P-glycoprotein (P-gp, ABCB1, MDR1) (Homo sapiens, UniProt P08183)
Experiment: inhibition of […]-IAAP photoaffinity labeling of P-gp in crude membranes
Type: binding

Sequence of P-glycoprotein (P-gp, ABCB1, MDR1) (P08183 whole entry): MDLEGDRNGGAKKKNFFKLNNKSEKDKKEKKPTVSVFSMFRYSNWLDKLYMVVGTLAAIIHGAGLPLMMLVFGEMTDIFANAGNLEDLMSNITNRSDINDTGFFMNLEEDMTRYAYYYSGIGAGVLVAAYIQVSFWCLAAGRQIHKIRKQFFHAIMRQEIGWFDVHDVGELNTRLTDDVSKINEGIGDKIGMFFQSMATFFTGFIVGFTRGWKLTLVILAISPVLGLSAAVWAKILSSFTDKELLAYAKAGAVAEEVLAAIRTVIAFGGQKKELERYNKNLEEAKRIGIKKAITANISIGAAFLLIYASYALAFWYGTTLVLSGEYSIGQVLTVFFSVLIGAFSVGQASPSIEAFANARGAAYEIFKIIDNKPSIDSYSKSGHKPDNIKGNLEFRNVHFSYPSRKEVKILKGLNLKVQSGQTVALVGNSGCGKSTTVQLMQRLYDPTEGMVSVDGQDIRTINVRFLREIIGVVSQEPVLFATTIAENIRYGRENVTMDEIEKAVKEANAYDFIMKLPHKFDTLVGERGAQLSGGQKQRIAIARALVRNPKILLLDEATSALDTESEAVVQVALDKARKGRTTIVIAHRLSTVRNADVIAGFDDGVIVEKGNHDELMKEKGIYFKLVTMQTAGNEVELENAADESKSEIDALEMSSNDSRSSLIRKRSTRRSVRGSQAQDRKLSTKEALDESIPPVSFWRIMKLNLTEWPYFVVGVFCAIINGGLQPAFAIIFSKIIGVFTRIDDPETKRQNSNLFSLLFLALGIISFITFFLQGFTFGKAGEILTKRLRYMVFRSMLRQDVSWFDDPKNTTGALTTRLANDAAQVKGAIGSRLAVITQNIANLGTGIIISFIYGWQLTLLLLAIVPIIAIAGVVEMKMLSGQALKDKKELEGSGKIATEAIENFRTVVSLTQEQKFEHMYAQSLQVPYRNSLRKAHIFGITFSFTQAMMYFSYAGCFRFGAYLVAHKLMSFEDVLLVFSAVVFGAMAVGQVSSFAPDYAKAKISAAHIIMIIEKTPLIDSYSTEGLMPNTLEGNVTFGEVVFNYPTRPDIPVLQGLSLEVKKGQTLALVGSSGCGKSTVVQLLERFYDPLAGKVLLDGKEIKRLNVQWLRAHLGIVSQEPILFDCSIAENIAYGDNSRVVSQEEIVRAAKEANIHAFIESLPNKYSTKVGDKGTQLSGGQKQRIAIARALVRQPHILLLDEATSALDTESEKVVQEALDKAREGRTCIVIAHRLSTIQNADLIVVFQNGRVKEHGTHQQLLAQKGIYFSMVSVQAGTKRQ

C=C(C)/C=C/C[C@@H](C)[C@H]1CC[C@@]2(C)[C@@H]3[C@@H](O)C=C4[C@@H](CC[C@H](O)C4(C)C)[C@]3(C=O)CC[C@]12C [kuguacin J] gave an IC50 of 8.3 ± 5.4 µM.
